Results as given in US20070082880A1 (priority 2005, published 2007).

Molecular target: T1, human PKCθ full length enzyme (Homo sapiens, UniProt Q04759)
T1 construct: human PKCθ full length enzyme (Panvera Catalog No. P2996); purchased Panvera P2996
Experiment: PKCθ IMAP Assay
Assay type: biochemical
Settings: average value when one or more samples were tested; ATP 6 uM, PKCθ 1 nM
Method in brief: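 IMAP fluorescence polarization after 20 min with binding beads measured phosphorylation of 100 nM 5FAM-peptide. Reactions held 1 nM full-length human PKCθ, 6 uM ATP, 5% DMSO and DTT-containing buffer, 25 min at room temperature. Compounds tested as 2:1 serial dilutions; controls lacked ATP or enzyme.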

T1 sequence (Q04759 whole entry): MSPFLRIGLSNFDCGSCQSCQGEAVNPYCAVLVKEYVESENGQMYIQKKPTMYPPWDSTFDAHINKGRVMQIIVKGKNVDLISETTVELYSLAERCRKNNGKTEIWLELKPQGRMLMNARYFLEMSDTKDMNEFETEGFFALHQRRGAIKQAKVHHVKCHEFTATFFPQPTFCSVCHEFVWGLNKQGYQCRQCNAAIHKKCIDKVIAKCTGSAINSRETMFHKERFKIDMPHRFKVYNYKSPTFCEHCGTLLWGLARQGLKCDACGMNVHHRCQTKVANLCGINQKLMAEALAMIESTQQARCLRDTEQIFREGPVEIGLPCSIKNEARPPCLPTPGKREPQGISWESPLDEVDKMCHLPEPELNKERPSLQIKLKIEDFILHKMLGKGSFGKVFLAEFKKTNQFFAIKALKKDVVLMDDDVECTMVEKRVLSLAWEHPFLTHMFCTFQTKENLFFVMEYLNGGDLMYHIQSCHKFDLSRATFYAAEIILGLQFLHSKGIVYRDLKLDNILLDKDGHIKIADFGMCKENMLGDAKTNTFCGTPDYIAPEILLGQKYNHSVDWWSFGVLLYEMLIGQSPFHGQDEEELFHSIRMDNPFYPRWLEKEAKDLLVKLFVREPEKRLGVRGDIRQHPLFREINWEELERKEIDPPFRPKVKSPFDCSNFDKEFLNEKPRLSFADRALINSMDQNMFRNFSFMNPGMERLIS

IC50 | SMILES
11 nM | Cc1c(Nc2c(C#N)cnc3sc(-c4cccc(O)c4)cc23)ccc2[nH]ccc12 [Compound 437, 2-(3-hydroxyphenyl)-4-[(4-methyl-1H-indol-5-yl)amino]thieno[2,3-b]pyridine-5-carbonitrile]
570 nM | CN(C)Cc1ccccc1-c1cc2c(Nc3ccc4[nH]ccc4c3)c(C#N)cnc2s1 [Compound 114, 2-{2-[(dimethylamino)methyl]phenyl}-4-(1H-indol-5-ylamino)thieno[2,3-b]pyridine-5-carbonitrile]
69 nM | N#Cc1cnc2sc(-c3cccc(CN4CC[C@@H](O)C4)c3)cc2c1Nc1ccc2[nH]ccc2c1 [Compound 172, 2-(3-{[(3R)-3-hydroxypyrrolidin-1-yl]methyl}phenyl)-4-(1H-indol-5-ylamino)thieno[2,3-b]pyridine-5-carbonitrile]
210 nM | CN(C)S(=O)(=O)c1ccc(-c2cc3c(Nc4ccc5[nH]ccc5c4)c(C#N)cnc3s2)cc1 [Compound 231, 4-[5-cyano-4-(1H-indol-5-ylamino)thieno[2,3-b]pyridin-2-yl]-N,N-dimethylbenzenesulfonamide]
> 55000 nM | CN(c1ccc2[nH]ccc2c1)c1c(C#N)cnc2sc(-c3ccccc3)cc12 [Compound 122, 4-[1H-indol-5-yl(methyl)amino]-2-phenylthieno[2,3-b]pyridine-5-carbonitrile]
59 nM | CNS(=O)(=O)c1ccc(-c2cc3c(Nc4ccc5[nH]ccc5c4)c(C#N)cnc3s2)cc1 [Compound 198, 4-[5-cyano-4-(1H-indol-5-ylamino)thieno[2,3-b]pyridin-2-yl]-N-methylbenzenesulfonamide]
1110 nM | Cc1ccc2[nH]ccc2c1Nc1c(C#N)cnc2sc(-c3ccccc3)cc12 [Compound 319, 4-[(5-methyl-1H-indol-4-yl)amino]-2-phenylthieno[2,3-b]pyridine-5-carbonitrilee]
350 nM | CCN(CC)Cc1cccc(-c2cc3c(Nc4ccc5[nH]ccc5c4)c(C#N)cnc3s2)c1 [Compound 161, 2-{3-[(diethylamino)methyl]phenyl}-4-(1H-indol-5-ylamino)thieno[2,3-b]pyridine-5-carbonitrile]
110 nM | N#Cc1cnc2sc(-c3cccc(CNCCCO)c3)cc2c1Nc1ccc2[nH]ccc2c1 [Compound 167, 2-(3-{[(3-hydroxypropyl)amino]methyl}phenyl)-4-(1H-indol-5-ylamino)thieno[2,3-b]pyridine-5-carbonitrile]

More lines, now with the values behind:

SMILES | IC50
CN1CCN(C(=O)c2cc3c(Nc4ccc5[nH]ccc5c4)c(C#N)cnc3s2)CC1 [Compound 253, 4-(1H-indol-5-ylamino)-2-[(4-methylpiperazin-1-yl)carbonyl]thieno[2,3-b]pyridine-5-carbonitrile] | 2280 nM
Cc1c(Nc2c(C#N)cnc3sc(-c4cccc(OC[C@@H](C)O)c4)cc23)ccc2[nH]ccc12 [Compound 482, 2-(3-{[(2R)-2-hydroxypropyl]-oxy}phenyl)-4-[(4-methyl-1H-indol-5-yl)amino]thieno[2,3-b]pyridine-5-carbonitrile] | 93 nM
N#Cc1cnc2sc(-c3cccc(CN4CCCCC4)c3)cc2c1Nc1ccc2[nH]ccc2c1 [Compound 160, 4-(1H-indol-5-ylamino)-2-[3-(piperidin-1-ylmethyl)phenyl]thieno[2,3-b]pyridine-5-carbonitrile] | 360 nM
CN(C)Cc1cscc1-c1cc2c(Nc3ccc4[nH]ccc4c3)c(C#N)cnc2s1 [Compound 464, 2-{4-[(dimethylamino)methyl]-3-thienyl}-4-(1H-indol-5-ylamino)thieno[2,3-b]pyridine-5-carbonitrile] | 77 nM
Cc1c(Nc2c(C#N)cnc3sc(-c4ccc(OC[C@@H](C)O)cc4)cc23)ccc2[nH]ccc12 [Compound 489, 2-(4-{[(2R)-2-hydroxypropyl]-oxy}phenyl)-4-[(4-methyl-1H-indol-5-yl)amino]thieno[2,3-b]pyridine-5-carbonitrile] | 175 nM
N#Cc1cnc2sc(/C=C/c3cccc(F)c3)cc2c1Nc1ccc2[nH]ccc2c1 [Compound 402, 2-[(E)-2-(3-fluorophenyl)vinyl]-4-(1H-indol-5-ylamino)thieno[2,3-b]pyridine-5-carbonitrile] | 465 nM
Cc1ccc(S(=O)(=O)n2ccc3c(Cl)c(Nc4c(C#N)cnc5sc(I)cc45)cnc32)cc1 [Compound 522, 4-({4-chloro-1-[(4-methylphenyl)sulfonyl]-1H-pyrrolo[2,3-b]pyridin-5-yl}amino)-2-iodothieno[2,3-b]pyridine-5-carbonitrile] | 14100 nM
Cc1c(Nc2c(C#N)cnc3sc(-c4ccc(NCCN5CCOCC5)nc4)cc23)ccc2[nH]ccc12 [Compound 352, 4-[(4-methyl-1H-indol-5-yl)amino]-2-{6-[(2-morpholin-4-ylethyl)amino]pyridin-3-yl}thieno[2,3-b]pyridine-5-carbonitrile] | 23 nM
Cc1c(Nc2c(C#N)cnc3sc(-c4ccccc4OC[C@H](O)CO)cc23)ccc2[nH]ccc12 [Compound 493, 2-(2-{[(2R)-2,3-dihydroxypropyl]-oxy}phenyl)-4-[(4-methyl-1H-indol-5-yl)amino]thieno[2,3-b]pyridine-5-carbonitrile] | 45 nM
Cc1c(Nc2c(C#N)cnc3sc(-c4ccc5cc[nH]c5c4)cc23)ccc2[nH]ccc12 [Compound 521, 2-(1H-indol-6-yl)-4-[(4-methyl-1H-indol-5-yl)amino]thieno[2,3-b]pyridine-5-carbonitrile] | 37 nM
Cc1c(Nc2c(C#N)cnc3sc(-c4ccccc4NS(C)(=O)=O)cc23)ccc2[nH]ccc12 [Compound 371, N-(2-{5-cyano-4-[(4-methyl-1H-indol-5-yl)amino]thieno[2,3-b]pyridin-2-yl}phenyl)methanesulfonamide] | 182 nM
N#Cc1cnc2sc(-c3cccc(CN4CCCC(CO)C4)c3)cc2c1Nc1ccc2[nH]ccc2c1 (centres unmarked) [Compound 173, 2-(3-{[3-(hydroxymethyl)piperidin-1-yl]methyl}phenyl)-4-(1H-indol-5-ylamino)thieno[2,3-b]pyridine-5-carbonitrile] | 130 nM
Cc1c(Nc2c(C#N)cnc3sc(-c4cccc(C(=O)N5CCCC5)c4)cc23)ccc2[nH]ccc12 [Compound 423, 4-[(4-methyl-1H-indol-5-yl)amino]-2-[3-(pyrrolidin-1-ylcarbonyl)phenyl]thieno[2,3-b]pyridine-5-carbonitrile] | 58 nM
CC(=O)Nc1ccccc1-c1cc2c(Nc3ccc4[nH]ccc4c3C)c(C#N)cnc2s1 [Compound 435, N-(2-{5-cyano-4-[(4-methyl-1H-indol-5-yl)amino]thieno[2,3-b]pyridin-2-yl}phenyl)acetamide] | 282 nM
Cc1c(Nc2c(C#N)cnc3sc(-c4cccc(C(=O)NCCN(C)C)c4)c(C)c23)ccc2[nH]ccc12 [Compound 429, 3-{5-cyano-3-methyl-4-[(4-methyl-1H-indol-5-yl)amino]thieno[2,3-b]pyridin-2-yl}-N-[2-(dimethylamino)ethyl]benzamide] | 60 nM
COc1ccc(C=O)cc1-c1cc2c(Nc3ccc4[nH]ccc4c3C)c(C#N)cnc2s1 [Compound 338, 2-(5-formyl-2-methoxyphenyl)-4-[(4-methyl-1H-indol-5-yl)amino]thieno[2,3-b]pyridine-5-carbonitrile] | 14 nM
N#Cc1cnc2sc(-c3cccc(CNCCCN4CCOCC4)c3)cc2c1Nc1ccc2[nH]ccc2c1 [Compound 180, 4-(1H-indol-5-ylamino)-2-(3-{[(3-morpholin-4-ylpropyl)amino]methyl}phenyl)thieno[2,3-b]pyridine-5-carbonitrile] | 110 nM
